Assay results from patent US11987588B2, “Modulators of the beta-3 adrenergic receptor useful for the treatment or prevention of heart failure and disorders related thereto” (Arena Pharmaceuticals, Inc., priority 2017, dated 2024).

Molecular target: Beta-3 Adrenergic Receptor (Homo sapiens (Human), UniProt P13945)
Test: Homogeneous Time-Resolved Fluorescence (HTRF) cAMP antagonist assay, IC50 determination
Type: cell-based
Conditions: CHO-K1 cells stably expressing recombinant receptor, isoproterenol at EC90
In short: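 Antagonist mode: isoproterenol at its predetermined EC90 added after compound to recombinant CHO-K1 cells in IBMX-containing PBS, 1 h, room temperature. Compounds tested as 5-fold, 10-point dilutions, top final typically 10 or 100 μM. HTRF signal converted to cAMP via standard curve, giving IC50.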

Chain of Beta-3 Adrenergic Receptor (P13945 whole entry, species assumed): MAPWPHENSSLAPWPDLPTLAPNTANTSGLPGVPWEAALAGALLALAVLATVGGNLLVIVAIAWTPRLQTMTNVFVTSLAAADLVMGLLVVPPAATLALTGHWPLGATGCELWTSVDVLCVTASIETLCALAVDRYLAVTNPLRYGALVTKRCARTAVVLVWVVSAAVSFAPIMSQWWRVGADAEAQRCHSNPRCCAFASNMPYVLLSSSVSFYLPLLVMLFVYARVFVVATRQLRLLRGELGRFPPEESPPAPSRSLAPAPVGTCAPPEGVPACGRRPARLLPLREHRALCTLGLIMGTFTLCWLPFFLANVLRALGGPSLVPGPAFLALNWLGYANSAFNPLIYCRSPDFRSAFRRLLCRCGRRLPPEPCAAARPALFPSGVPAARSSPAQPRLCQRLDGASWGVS

Row | IC50 | SMILES
1 | 12.4 nM | CNS(=O)(=O)c1cccc(OC[C@@H](O)CNC2COC3(CCN(S(=O)(=O)c4cccc(Cl)c4)CC3)C2)c1 (stereo partly drawn) [Compound 15, 3-((2S)-3-(8-(3-chlorophenylsulfonyl)-1-oxa-8-azaspiro[4.5]decan-3-ylamino)-2-hydroxypropoxy)-N-methylbenzenesulfonamide]
2 | 57.9 nM | CNS(=O)(=O)c1cccc(OC[C@@H](O)CNC2COC3(CCN(S(=O)(=O)c4cncc(OC)c4)CC3)C2)c1 (stereo partly drawn) [Compound 386, 3-((2S)-2-hydroxy-3-(8-(5-methoxypyridin-3-ylsulfonyl)-1-oxa-8-azaspiro[4.5]decan-3-ylamino)propoxy)-N-methylbenzenesulfonamide]
3 | 716 nM | CN(C)CCCNS(=O)(=O)c1cccc(OC[C@@H](O)CNC2COC3(CCN(S(=O)(=O)c4ccc5c(c4)CCCC5)CC3)C2)c1 (stereo partly drawn) [Compound 314, N-(3-(dimethylamino)propyl)-3-((2S)-2-hydroxy-3-(8-(5,6,7,8-tetrahydronaphthalen-2-ylsulfonyl)-1-oxa-8-azaspiro[4.5]decan-3-ylamino)propoxy)benzenesulfonamide]
4 | 216 nM | CNS(=O)(=O)c1cccc(OC[C@@H](O)CNC2COC3(CCN(S(=O)(=O)c4cnc(O)nc4)CC3)C2)c1 (stereo partly drawn) [Compound 425, 3-((2S)-2-hydroxy-3-(8-(2-hydroxypyrimidin-5-ylsulfonyl)-1-oxa-8-azaspiro[4.5]decan-3-ylamino)propoxy)-N-methylbenzenesulfonamide]
5 | 49.3 nM | CNS(=O)(=O)c1cccc(OC[C@@H](O)CNC2COC3(CCN(S(=O)(=O)c4ccc(S(C)(=O)=O)cc4)CC3)C2)c1 (stereo partly drawn) [Compound 37, 3-((2S)-2-hydroxy-3-(8-(4-(methylsulfonyl)phenylsulfonyl)-1-oxa-8-azaspiro[4.5]decan-3-ylamino)propoxy)-N-methylbenzenesulfonamide]
6 | 239 nM | CNS(=O)(=O)c1cccc(OC[C@@H](O)CNC2COC3(CCN(S(=O)(=O)c4cccc(-c5cccc(C(=O)O)c5)c4)CC3)C2)c1 (stereo partly drawn) [Compound 112, 3′-(3-((S)-2-hydroxy-3-(3-(N-methylsulfamoyl)phenoxy)propylamino)-1-oxa-8-azaspiro[4.5]decan-8-ylsulfonyl)biphenyl-3-carboxylic acid]
7 | 10.2 nM | CNS(=O)(=O)c1cccc(OC[C@@H](O)CNC2COC3(CCN(S(=O)(=O)c4cccc(Cl)c4F)CC3)C2)c1 (stereo partly drawn) [Compound 139, 3-((2S)-3-(8-(3-chloro-2-fluorophenylsulfonyl)-1-oxa-8-azaspiro[4.5]decan-3-ylamino)-2-hydroxypropoxy)-N-methylbenzenesulfonamide]
8 | 29.8 nM | CNS(=O)(=O)c1cccc(OC[C@@H](O)CNC2COC3(CCN(S(=O)(=O)c4cc(C)ccc4C#N)CC3)C2)c1 (stereo partly drawn) [Compound 180, 3-((2S)-3-(8-(2-cyano-5-methylphenylsulfonyl)-1-oxa-8-azaspiro[4.5]decan-3-ylamino)-2-hydroxypropoxy)-N-methylbenzenesulfonamide]
9 | 1160 nM | CN1CCOc2ncc(S(=O)(=O)N3CCC4(CC3)C[C@@H](NC[C@H](O)COc3cccc(S(=O)(=O)N[C@H]5CCCC[C@@H]5O)c3)CO4)cc21 [Compound 431, 3-((S)-2-hydroxy-3-((R)-8-(1-methyl-2,3-dihydro-1H-pyrido[2,3-b][1,4]oxazin-7-ylsulfonyl)-1-oxa-8-azaspiro[4.5]decan-3-ylamino)propoxy)-N-((1S,2S)-2-hydroxycyclohexyl)benzenesulfonamide]
10 | 59.2 nM | CNS(=O)(=O)c1cccc(OC[C@@H](O)CN[C@H]2COC3(CCN(S(=O)(=O)c4cnc5c(c4)N(C)CC(C)(C)O5)CC3)C2)c1 [Compound 473, 3-((S)-2-hydroxy-3-((R)-8-(1,3,3-trimethyl-2,3-dihydro-1H-pyrido[2,3-b][1,4]oxazin-7-ylsulfonyl)-1-oxa-8-azaspiro[4.5]decan-3-ylamino)propoxy)-N-methylbenzenesulfonamide]
11 | 98.3 nM | O=S(=O)(NCCO)c1cccc(OC[C@@H](O)CN[C@H]2COC3(CCN(S(=O)(=O)c4cnc5cc[nH]c5c4)CC3)C2)c1 [Compound 521, 3-((S)-3-((R)-8-(1H-pyrrolo[3,2-b]pyridin-6-ylsulfonyl)-1-oxa-8-azaspiro[4.5]decan-3-ylamino)-2-hydroxypropoxy)-N-(2-hydroxyethyl)benzenesulfonamide]
12 | 85.6 nM | CNS(=O)(=O)c1cccc(OC[C@@H](O)CNC2COC3(CCN(S(=O)(=O)c4cccc(-c5cccc(COC)c5)c4)CC3)C2)c1 (stereo partly drawn) [Compound 65, 3-((2S)-2-hydroxy-3-(8-(3′-(methoxymethyl)biphenyl-3-ylsulfonyl)-1-oxa-8-azaspiro[4.5]decan-3-ylamino)propoxy)-N-methylbenzenesulfonamide]
13 | 141 nM | O=S(=O)(NCCF)c1cccc(OC[C@@H](O)CN[C@H]2COC3(CCN(S(=O)(=O)c4ccc5ncccc5c4)CC3)C2)c1 [Compound 393, N-(2-fluoroethyl)-3-((S)-2-hydroxy-3-((R)-8-(quinolin-6-ylsulfonyl)-1-oxa-8-azaspiro[4.5]decan-3-ylamino)propoxy)benzenesulfonamide]
14 | 98.6 nM | CNS(=O)(=O)c1cccc(OC[C@@H](O)CNC2COC3(CCN(S(=O)(=O)c4ccc(NCCOC)nc4)CC3)C2)c1 (stereo partly drawn) [Compound 426, 3-((2S)-2-hydroxy-3-(8-(6-(2-methoxyethylamino)pyridin-3-ylsulfonyl)-1-oxa-8-azaspiro[4.5]decan-3-ylamino)propoxy)-N-methylbenzenesulfonamide]
15 | 13.4 nM | CNS(=O)(=O)c1cccc(OC[C@@H](O)CNC2COC3(CCN(S(=O)(=O)c4cccc(C)c4)CC3)C2)c1 (stereo partly drawn) [Compound 21, 3-((2S)-2-hydroxy-3-(8-(m-tolylsulfonyl)-1-oxa-8-azaspiro[4.5]decan-3-ylamino)propoxy)-N-methylbenzenesulfonamide]
16 | 74.9 nM | CCc1nc2cc(S(=O)(=O)N3CCC4(CC3)C[C@@H](NC[C@H](O)COc3cccc(S(=O)(=O)NC)c3)CO4)cnc2[nH]1 [Compound 515, 3-((S)-3-((R)-8-(2-ethyl-3H-imidazo[4,5-b]pyridin-6-ylsulfonyl)-1-oxa-8-azaspiro[4.5]decan-3-ylamino)-2-hydroxypropoxy)-N-methylbenzenesulfonamide]
17 | 26 nM | CNS(=O)(=O)c1cccc(OC[C@@H](O)CNC2COC3(CCN(S(=O)(=O)c4cccc(-c5ccccn5)c4)CC3)C2)c1 (stereo partly drawn) [Compound 102, 3-((2S)-2-hydroxy-3-(8-(3-(pyridin-2-yl)phenylsulfonyl)-1-oxa-8-azaspiro[4.5]decan-3-ylamino)propoxy)-N-methylbenzenesulfonamide]
18 | 24.7 nM | CNS(=O)(=O)c1cccc(OC[C@@H](O)CN[C@H]2COC3(CCN(S(=O)(=O)c4cc(C)ccc4F)CC3)C2)c1 [Compound 269, 3-((S)-3-((R)-8-(2-fluoro-5-methylphenylsulfonyl)-1-oxa-8-azaspiro[4.5]decan-3-ylamino)-2-hydroxypropoxy)-N-methylbenzenesulfonamide]
19 | 472 nM | CN1CCOc2ncc(S(=O)(=O)N3CCC4(CC3)C[C@@H](NC[C@H](O)COc3cccc(S(=O)(=O)NC5CCCC5O)c3)CO4)cc21 (stereo in doubt) [Compound 437, 3-((S)-2-hydroxy-3-((R)-8-(1-methyl-2,3-dihydro-1H-pyrido[2,3-b][1,4]oxazin-7-ylsulfonyl)-1-oxa-8-azaspiro[4.5]decan-3-ylamino)propoxy)-N-((1R,2S)-2-hydroxycyclopentyl)benzenesulfonamide]
